Data: US9676782B2, “Substituted pyrazolo[1,5-a]pyrazines as negative allosteric modulators of metabotropic glutamate receptor 3” (Vanderbilt University, priority 2014, dated 2017)
Where two headings read alike, the source gives them in different places.

Key:
rat mGlu3 = rat mGlu3 (Rattus norvegicus (Rat), UniProt P31422); experiment: mGlu3 Ca2+ flux assay; type: cell-based; conditions: for IC50: read-out: rat mGlu3 IC50; for remaining activity at 30 µM: amplitude of response at 30 μM test compound as % of maximal response to glutamate, read-out: rat mGlu3 Glu max (%)
Chain of rat mGlu3 (P31422 23-879): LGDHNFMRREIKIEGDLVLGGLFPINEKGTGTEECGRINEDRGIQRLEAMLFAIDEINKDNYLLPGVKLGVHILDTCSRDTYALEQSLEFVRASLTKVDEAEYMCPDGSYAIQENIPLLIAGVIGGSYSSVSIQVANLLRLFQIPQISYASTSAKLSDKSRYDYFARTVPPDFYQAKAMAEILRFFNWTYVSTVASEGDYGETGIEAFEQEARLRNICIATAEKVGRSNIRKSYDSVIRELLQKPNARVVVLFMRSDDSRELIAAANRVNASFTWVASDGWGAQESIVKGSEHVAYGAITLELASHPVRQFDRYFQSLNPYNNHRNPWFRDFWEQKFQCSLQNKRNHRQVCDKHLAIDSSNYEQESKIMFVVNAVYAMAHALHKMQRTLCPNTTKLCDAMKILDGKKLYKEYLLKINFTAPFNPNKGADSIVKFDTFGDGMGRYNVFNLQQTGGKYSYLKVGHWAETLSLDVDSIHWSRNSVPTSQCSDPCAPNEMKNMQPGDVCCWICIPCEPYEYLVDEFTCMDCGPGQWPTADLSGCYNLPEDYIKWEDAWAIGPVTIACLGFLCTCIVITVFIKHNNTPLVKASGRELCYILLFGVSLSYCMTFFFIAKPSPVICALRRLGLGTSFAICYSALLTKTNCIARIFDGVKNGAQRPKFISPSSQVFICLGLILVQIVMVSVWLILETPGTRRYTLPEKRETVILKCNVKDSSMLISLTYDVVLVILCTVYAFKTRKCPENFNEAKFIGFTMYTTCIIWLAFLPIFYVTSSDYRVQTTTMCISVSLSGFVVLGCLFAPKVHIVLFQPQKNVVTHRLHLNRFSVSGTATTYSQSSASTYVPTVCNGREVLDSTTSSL
Summary of the method: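 Cells expressing rat mGlu3 were grown overnight at 37° C. under 5% CO2, then loaded with dye. After dye removal they received 20 μL of assay buffer and sat 10 minutes at room temperature. Calcium flux was read on a Hamamatsu FDSS7000, and fluorescence was expressed as fold over basal and normalized to the maximal glutamate response.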

rat mGlu5 = rat mGlu5 (Rattus norvegicus (Rat), UniProt P31424); experiment: mGlu5 Ca2+ flux assay; type: cell-based; conditions: for Fold selectivity (mGlu3 vs. mGlu5): ratio of rat mGlu5 EC50 or IC50 to rat mGlu3 IC50; for EC50 / IC50: read-out: rat mGlu5 EC50 or IC50; for IC50 / Emax at 30 µM: compound noted as NAM or partial antagonist (PAnt) at mGlu5; for IC50: glutamate EC80; for Emax at 30 µM: response at 30 μM as % of maximal glutamate response, read-out: rat mGlu5 Glu max (%)
Chain of rat mGlu5 (P31424 21-1203): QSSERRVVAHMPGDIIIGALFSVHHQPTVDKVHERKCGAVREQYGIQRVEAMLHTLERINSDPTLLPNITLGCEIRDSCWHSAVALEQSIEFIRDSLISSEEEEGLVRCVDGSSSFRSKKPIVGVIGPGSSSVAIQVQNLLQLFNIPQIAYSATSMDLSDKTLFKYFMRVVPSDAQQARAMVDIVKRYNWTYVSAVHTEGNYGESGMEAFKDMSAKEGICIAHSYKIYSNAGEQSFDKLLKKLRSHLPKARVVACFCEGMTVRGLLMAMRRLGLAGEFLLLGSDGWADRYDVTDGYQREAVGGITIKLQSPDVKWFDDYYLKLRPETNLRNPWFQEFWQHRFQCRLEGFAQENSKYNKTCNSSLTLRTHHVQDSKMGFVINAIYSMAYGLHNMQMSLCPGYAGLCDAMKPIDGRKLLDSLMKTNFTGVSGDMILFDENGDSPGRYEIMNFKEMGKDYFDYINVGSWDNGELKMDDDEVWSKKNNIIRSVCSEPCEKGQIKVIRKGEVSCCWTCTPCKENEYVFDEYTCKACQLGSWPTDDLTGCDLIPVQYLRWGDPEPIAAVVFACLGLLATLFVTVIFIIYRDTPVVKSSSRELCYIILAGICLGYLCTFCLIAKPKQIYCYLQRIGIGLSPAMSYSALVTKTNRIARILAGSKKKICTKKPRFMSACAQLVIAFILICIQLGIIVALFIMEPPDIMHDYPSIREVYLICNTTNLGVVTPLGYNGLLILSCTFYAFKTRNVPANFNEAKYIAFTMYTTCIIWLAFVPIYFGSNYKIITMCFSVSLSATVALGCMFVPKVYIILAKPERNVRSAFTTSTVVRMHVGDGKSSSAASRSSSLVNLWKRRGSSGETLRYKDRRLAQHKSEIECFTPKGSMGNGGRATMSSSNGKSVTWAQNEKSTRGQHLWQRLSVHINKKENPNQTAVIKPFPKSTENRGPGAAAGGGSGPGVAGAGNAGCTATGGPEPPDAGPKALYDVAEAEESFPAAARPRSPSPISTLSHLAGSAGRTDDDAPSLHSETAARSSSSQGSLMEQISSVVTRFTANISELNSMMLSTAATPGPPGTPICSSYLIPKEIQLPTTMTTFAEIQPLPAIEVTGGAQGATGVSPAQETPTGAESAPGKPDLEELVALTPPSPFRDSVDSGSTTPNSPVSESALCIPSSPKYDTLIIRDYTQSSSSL
Summary of the method: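 Transfected cells grown overnight at 37° C/5% CO2, dye-loaded, then 5 min in assay buffer at RT before Ca2+ flux read on FDSS7000. Fluorescence as F/F0 fold over basal, normalized to maximal glutamate response; EC50 from unconstrained 4-parameter logistic fit, triplicates weighted evenly.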

[1] = NAM potency, decrease of glutamate EC80 response, >30,000 = no measurable activity, >10,000 = no plateau

| SMILES | IC50 (rat mGlu3; [1]) | remaining activity at 30 µM (rat mGlu3) | Fold selectivity (mGlu3 vs. mGlu5) (rat mGlu5) | EC50 (rat mGlu5) | IC50 (rat mGlu3) | IC50 (rat mGlu5) | Emax at 30 µM (rat mGlu5) |
| --- | --- | --- | --- | --- | --- | --- | --- |
| COc1ccc(N(C)Cc2cc3n(n2)CCN(c2ccccc2OC)C3=O)cc1 [Compound 119, 5-(2-methoxyphenyl)-2-(((4-methoxyphenyl)(methyl)amino)methyl)-6,7-dihydropyrazolo[1,5-a]pyrazin-4(5H)-one] | 3280 nM | 1.3% | >9.1 | > 30 µM | – | – | – |
| COCc1ccc(N2CCn3nc(CN(C)c4ccc(OC)cc4)cc3C2=O)cc1 [Compound 120, 5-(4-(methoxymethyl)phenyl)-2-(((4-methoxyphenyl)(methyl)amino)methyl)-6,7-dihydropyrazolo[1,5-a]pyrazin-4(5H)-one] | – | 1.48% | >10 | > 30 µM | 2880 nM | – | – |
| COc1ccc(N(C)Cc2cc3n(n2)CCN(c2cccnc2)C3=O)cc1 [Compound 121, 2-(((4-methoxyphenyl)(methyl)amino)methyl)-5-(pyridin-3-yl)-6,7-dihydropyrazolo[1,5-a]pyrazin-4(5H)-one] | 4690 nM | 0.66% | >6.3 | > 30 µM | – | – | – |
| COc1ccc(N(C)Cc2cc3n(n2)CCN(c2ccc(F)cn2)C3=O)cc1 [Compound 122, 5-(5-fluoropyridin-2-yl)-2-(((4-methoxyphenyl)(methyl)amino)methyl)-6,7-dihydropyrazolo[1,5-a]pyrazin-4(5H)-one] | 1140 nM | 1.4% | >26 | > 30 µM | – | – | – |
| COc1ccc(N(C)Cc2cc3n(n2)CCN(c2ccc(OC(F)F)cc2)C3=O)cc1 [Compound 123, 5-(4-(difluoromethoxy)phenyl)-2-(((4-methoxyphenyl)(methyl)amino)methyl)-6,7-dihydropyrazolo[1,5-a]pyrazin-4(5H)-one] | 1030 nM | 0.3% | >29 | > 30 µM | – | – | – |
| COc1ccc(N(C)Cc2cc3n(n2)CCN(c2ccc(Cl)cn2)C3=O)cc1 [Compound 124, 5-(5-chloropyridin-2-yl)-2-(((4-methoxyphenyl)(methyl)amino)methyl)-6,7-dihydropyrazolo[1,5-a]pyrazin-4(5H)-one] | 917 nM | 1.64% | >32 | > 30 µM | – | – | – |
| COc1ccc(N(C)Cc2cc3n(n2)CCN(c2ccc(Cl)cc2F)C3=O)cc1 [Compound 125, 5-(4-chloro-2-fluorophenyl)-2-(((4-methoxyphenyl)(methyl)amino)methyl)-6,7-dihydropyrazolo[1,5-a]pyrazin-4(5H)-one] | 1380 nM | 1.47% | >21 | > 30 µM | – | – | – |
| COc1ccc(N(C)Cc2cc3n(n2)CCN(c2cccc(F)c2Cl)C3=O)cc1 [Compound 126, 5-(2-chloro-3-fluorophenyl)-2-(((4-methoxyphenyl)(methyl)amino)methyl)-6,7-dihydropyrazolo[1,5-a]pyrazin-4(5H)-one] | 1600 nM | 1.5% | >6.2 | – | – | > 10 µM | 56.8% |
| COc1ccc(N(C)Cc2cc3n(n2)CCN(c2cc(Cl)ccc2F)C3=O)cc1 [Compound 127, 5-(5-chloro-2-fluorophenyl)-2-(((4-methoxyphenyl)(methyl)amino)methyl)-6,7-dihydropyrazolo[1,5-a]pyrazin-4(5H)-one] | 1260 nM | 2.32% | >7.9 | – | – | > 10 µM | 54.6% |
| COc1ccc(N(C)Cc2cc3n(n2)CCN(c2c(F)cc(Cl)cc2F)C3=O)cc1 [Compound 128, 5-(4-chloro-2,6-difluorophenyl)-2-(((4-methoxyphenyl)(methyl)amino)methyl)-6,7-dihydropyrazolo[1,5-a]pyrazin-4(5H)-one] | 1860 nM | 1.8% | >16 | > 30 µM | – | – | – |
| COc1ccc(N(C)Cc2cc3n(n2)CCN(c2cc(F)ccc2Cl)C3=O)cc1 [Compound 129, 5-(2-chloro-5-fluorophenyl)-2-(((4-methoxyphenyl)(methyl)amino)methyl)-6,7-dihydropyrazolo[1,5-a]pyrazin-4(5H)-one] | 2020 nM | 2.02% | >14 | > 30 µM | – | – | – |
| COc1ccc(N(C)Cc2cc3n(n2)CCN(c2ccc(F)cc2Cl)C3=O)cc1 [Compound 130, 5-(2-chloro-4-fluorophenyl)-2-(((4-methoxyphenyl)(methyl)amino)methyl)-6,7-dihydropyrazolo[1,5-a]pyrazin-4(5H)-one] | 1950 nM | 2.05% | >15 | > 30 µM | – | – | – |
| COc1ccc(N(C)Cc2cc3n(n2)CCN(c2cc(F)cc(Cl)c2)C3=O)cc1 [Compound 131, 5-(3-chloro-5-fluorophenyl)-2-(((4-methoxyphenyl)(methyl)amino)methyl)-6,7-dihydropyrazolo[1,5-a]pyrazin-4(5H)-one] | – | 1.95% | >21 | > 30 µM | 1370 nM | – | – |
| COc1ccc(N(C)Cc2cc3n(n2)CCN(c2cc(F)cc(OC)c2)C3=O)cc1 [Compound 132, 5-(3-fluoro-5-methoxyphenyl)-2-(((4-methoxyphenyl)(methyl)amino)methyl)-6,7-dihydropyrazolo[1,5-a]pyrazin-4(5H)-one] | 1340 nM | 1.5% | >22 | > 30 µM | – | – | – |
| COc1ccc(N(C)Cc2cc3n(n2)CCN(c2ccc(F)c(Cl)c2)C3=O)cc1 [Compound 133, 5-(3-chloro-4-fluorophenyl)-2-(((4-methoxyphenyl)(methyl)amino)methyl)-6,7-dihydropyrazolo[1,5-a]pyrazin-4(5H)-one] | 1210 nM | 2.13% | >24 | > 30 µM | – | – | – |
| COc1ccc(N(C)Cc2cc3n(n2)CCN(c2cc(Cl)cc(OC)c2)C3=O)cc1 [Compound 134, 5-(3-chloro-5-methoxyphenyl)-2-(((4-methoxyphenyl)(methyl)amino)methyl)-6,7-dihydropyrazolo[1,5-a]pyrazin-4(5H)-one] | 1710 nM | 1.77% | >17 | > 30 µM | – | – | – |
| COc1ccc(N(C)Cc2cc3n(n2)CCN(c2cccc(Cl)c2F)C3=O)cc1 [Compound 135, 5-(3-chloro-2-fluorophenyl)-2-(((4-methoxyphenyl)(methyl)amino)methyl)-6,7-dihydropyrazolo[1,5-a]pyrazin-4(5H)-one] | 1210 nM | 7.26% | >24 | > 30 µM | – | – | – |
| COc1ccc(N(C)Cc2cc3n(n2)CCN(c2ccc(Cl)c(F)c2)C3=O)cc1 [Compound 136, 5-(4-chloro-3-fluorophenyl)-2-(((4-methoxyphenyl)(methyl)amino)methyl)-6,7-dihydropyrazolo[1,5-a]pyrazin-4(5H)-one] | 1270 nM | 2.43% | >23 | > 30 µM | – | – | – |
